{"source": "patent US6596863B2", "about": "“Medical composition containing nitroetheneamine Derivative or salt there of as active constituent” (Ishihara Sangyo Kaisha, Ltd., priority 1998, dated 2003)", "key": {"human MMP-7": {"biological_target": "T1, human MMP-7 (Homo sapiens, UniProt P09237)", "T1 construct": "purchased Kabushiki Kaisha Yagai Chuo Kenkyusho YU-31001", "T1 sequence (P09237 95-267)": "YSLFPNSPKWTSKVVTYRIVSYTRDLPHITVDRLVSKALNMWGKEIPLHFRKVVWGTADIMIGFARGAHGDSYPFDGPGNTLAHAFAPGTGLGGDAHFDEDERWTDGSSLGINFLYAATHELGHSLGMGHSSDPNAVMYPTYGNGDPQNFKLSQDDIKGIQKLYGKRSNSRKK", "assay": "Enzyme inhibition activity against MMP-7 (matrilysin), fluorescent peptide substrate NFF-2", "format": "biochemical", "settings": "human MMP-7, substrate NFF-2, 37° C. for 2.5 hours", "procedure": "The inhibition activity against human MMP-7 was measured by the same method as the method for MMP-3, by using a MMP-7 solution (0.025 unit/ml; No. YU-31001, manufactured by Kabushiki Kaisha Yagai Chuo Kenkyusho, purity: at least 99.9%) and a fluorescent peptide substrate MOCAc—Arg-Pro-Lys-Pro-Tyr—Ala-Nva-Trp-Met-Lys(Dnp) -NH2 [NFF-2, No. 3167-v, manufactured by Peptide Institute, Inc.]. The enzymatic reaction was carried out at 37° C. for 2.5 hours in a dark place, and the relative fluorescence intensity was measured at a fluorescence wavelength of 400 nm with an excitation wavelength of 327 nm."}, "[1]": {"biological_target": "T2, human MMP-9 (gelatinase B) (Homo sapiens, UniProt P14780)", "T2 construct": "endogenous in cells; host or cells: HT1080 human fibrosarcoma cells (ATCC CCL-121), PMA-stimulated; enzyme purified from the culture supernatant", "T2 sequence (P14780 107-707 limits assumed)": "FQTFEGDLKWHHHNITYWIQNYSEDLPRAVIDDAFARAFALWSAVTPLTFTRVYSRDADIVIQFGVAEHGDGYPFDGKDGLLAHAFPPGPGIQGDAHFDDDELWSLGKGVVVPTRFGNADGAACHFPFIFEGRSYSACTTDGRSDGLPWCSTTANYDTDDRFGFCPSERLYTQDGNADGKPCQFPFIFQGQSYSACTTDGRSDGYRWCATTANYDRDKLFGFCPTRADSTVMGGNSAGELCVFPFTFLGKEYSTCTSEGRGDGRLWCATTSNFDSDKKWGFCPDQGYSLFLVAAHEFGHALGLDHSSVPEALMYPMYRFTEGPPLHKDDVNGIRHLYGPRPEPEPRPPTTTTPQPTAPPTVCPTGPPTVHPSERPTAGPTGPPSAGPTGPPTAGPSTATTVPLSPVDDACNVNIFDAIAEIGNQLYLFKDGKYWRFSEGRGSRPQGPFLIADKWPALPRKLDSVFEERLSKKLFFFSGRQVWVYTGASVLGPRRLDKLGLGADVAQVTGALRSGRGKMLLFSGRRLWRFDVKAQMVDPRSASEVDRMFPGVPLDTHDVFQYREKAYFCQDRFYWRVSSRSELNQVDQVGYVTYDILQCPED", "assay": "Inhibition activity against human MMP-9 (gelatinase B), fluorescent peptide substrate", "format": "biochemical", "settings": "compounds of the formula (I)", "outline": "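MMP-9 purified from PMA-stimulated (10 ng/ml) HT1080 supernatant, or commercial enzyme (0.0125-0.025 unit/ml or 0.2 μg/ml final), incubated with compound and 10 μM final Mca-Pro-Leu-Gly-Leu-Dpa-Ala-Arg-NH2 fluorescent substrate at 37 °C for 3 h in the dark. Precursor enzyme activated with APMA.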"}, "[2]": {"system": "Colon 26/AD cells (mouse colon cancer)", "format": "in vivo", "procedure": "Colon 26 mouse colon cancer cells (obtained from Cancer Chemotherapy Center Foundation for Cancer Research) were transplanted subcutaneously to BALB/c mouse, 10 days later, the grown tumor was taken out. It was hashed in a Hanks equilibrium salt solution and passed through a metal mesh to obtain single cells, which were cultured in vitro (37° C., 5% CO2) (using 10% fetal bovine serum-containing Dulbecco's Modified Eagle Medium (D-5648, manufactured by Sigma Co.)). […] The same cell strain always produced and secreted MMP-2 in the supernatant of the in vitro culture, but when cultured by an addition of TNF-α (50 ng/ml) in the culture solution, it produced MMP-9 remarkably.\nWith reference to the method by Tsuruo et al (Japanese Journal of Cancer Research (Gann), Vol. 75, 193-198, 1984), the inhibition effects against experimental lung metastasis were evaluated. Namely, 3×10^4 Colon 26/AD cells (suspended in 0.2 ml of Minimum Essential Medium (manufactured by Nissui Seiyaku K. K.)) cultured in vitro were transplanted through the tail vein of a male BALB/c AnNCrj mouse (purchased from Charles River Japan, Inc.) of 6 weeks old (Day 0). In the case of Compound No. 37, it was suspended in a 1% Tween 80/physiological sodium chloride aqueous solution and intraperitoneally administered (administered in a volume of 10 ml/kg) immediately (within 5 minutes) before transplantation of the cells, 2 hours later and once per day on Day 1-4 and Day 7-11 (a total of 11 times). Further, in the case of Compound No. 157, it was dissolved in 100 mM Tris-HCl (pH 8.5)/150 mM NaCl and forcibly orally administered (administered in a volume of 10 ml/kg) by means of a metal sonde 30 minutes before transplantation of the cells, in the morning and evening of Day 1 and once per day on Day 2-4, Day 7-11 and Day 14 (a total of 12 times). To the vehicle control group, the respective solvents containing no test materials, were administered in the same manner. On Day 14 or Day 15, the lung of each mouse was taken out, and the weight was measured, and the metastatis inhibition rate was calculated in accordance with the following formula. [formula]\nA is the weight of lung of the treated group\nB is the average weight of lung of the normal group\nC is the average weight of lung of the solvent control group."}, "[3]": {"settings": "1st measurement, read-out: MMP-9 inhibition activities IC50, 1st"}, "[4]": {"settings": "2nd measurement, read-out: MMP-9 inhibition activities IC50, 2nd"}, "[5]": {"settings": "average of 1st and 2nd (or single measurement), read-out: MMP-9 inhibition activities IC50, Average"}}, "note": "Like-named read-outs stand apart in the source and are kept apart here. Marks after values point to notes of the source that are not given here.", "data": [{"smiles": "CNC(=C[N+](=O)[O-])NNc1cc(C(F)(F)F)cc(Cl)n1", "note": "[Compound No. 37]", "values": [{"measurement": "IC50", "setting": "human MMP-7", "value": 24.5, "unit": "µM"}, {"measurement": "IC50", "setting": "[1]; [3]", "value": 4.5, "unit": "µM"}, {"measurement": "IC50", "setting": "[1]; [4]", "value": 7, "unit": "µM"}, {"measurement": "IC50", "setting": "[1]; [5]", "value": 5.8, "unit": "µM"}, {"measurement": "Metastatis inhibition ratio (%)", "setting": "[2]; 30 mg/kg × 11 times, intraperitoneal, Day 14", "value": 40.2, "unit": "%*"}, {"measurement": "Lung weight increase (g) against normal mouse", "setting": "[2]; 30 mg/kg × 11 times, intraperitoneal, Day 14, vehicle control 0.189 ± 0.07", "value": "0.113 ± 0.06", "unit": "g"}, {"measurement": "Weight of lung (g) (Day 14)", "setting": "[2]; 30 mg/kg × 11 times, intraperitoneal, Day 14, vehicle control 0.402, normal mouse 0.213", "value": 0.326, "unit": "g"}, {"measurement": "inhibition ratio of experimental metastasis of Colon 26/AD to lung", "setting": "[2]; 30 mg/kg, intraperitoneal administration, total of 11 times, male BALB/c mouse, from lung weight", "value": 40.2, "unit": "%"}]}, {"smiles": "CNC(=C[N+](=O)[O-])NNc1cc(C(F)(F)F)cc(OCc2ccco2)n1", "note": "[compound 120]", "values": [{"measurement": "melting point", "value": "154 °C (dec.)"}, {"measurement": "IC50", "setting": "[1]; [3]", "value": 39.8, "unit": "µM"}, {"measurement": "IC50", "setting": "[1]; [4]", "value": 39.4, "unit": "µM"}, {"measurement": "IC50", "setting": "[1]; [5]", "value": 39.6, "unit": "µM"}]}, {"smiles": "CCOc1ccc(NC(=C[N+](=O)[O-])NN)cc1", "note": "[compound 70]", "values": [{"measurement": "melting point", "value": "198 °C (dec.)"}, {"measurement": "IC50", "setting": "[1]; [3]", "value": 42.1, "unit": "µM"}, {"measurement": "IC50", "setting": "[1]; [4]", "value": 57.1, "unit": "µM"}, {"measurement": "IC50", "setting": "[1]; [5]", "value": 49.6, "unit": "µM"}]}, {"smiles": "CNC(=C[N+](=O)[O-])NNc1cc(C(F)(F)F)cc(OCCOC(C)(C)C)n1", "note": "[compound 193]", "values": [{"measurement": "melting point", "value": "170 °C (dec.)"}, {"measurement": "IC50", "setting": "[1]; [3]", "value": 10.5, "unit": "µM"}, {"measurement": "IC50", "setting": "[1]; [5]", "value": 10.5, "unit": "µM"}]}, {"smiles": "CNC(=C[N+](=O)[O-])NNc1ncnc2c(C)csc12", "note": "[compound 170]", "values": [{"measurement": "melting point", "value": "216 °C (dec.)"}, {"measurement": "IC50", "setting": "[1]; [3]", "value": 5.6, "unit": "µM"}, {"measurement": "IC50", "setting": "[1]; [5]", "value": 5.6, "unit": "µM"}]}, {"smiles": "CSc1ccc(NC(=C[N+](=O)[O-])NN)cc1", "note": "[compound 72]", "values": [{"measurement": "melting point", "value": "177 °C (dec.)"}, {"measurement": "IC50", "setting": "[1]; [3]", "value": 40.8, "unit": "µM"}, {"measurement": "IC50", "setting": "[1]; [4]", "value": 41.5, "unit": "µM"}, {"measurement": "IC50", "setting": "[1]; [5]", "value": 41.2, "unit": "µM"}]}]}
